# Laboratory results from patent publication US11208412B2 (DAEGU-GYEONGBUK MEDICAL INNOVATION FOUNDATION, priority 2017, dated 2021).
# Tests used:
# Assay in all cases: Kinase selectivity, DiscoverX scanMAX Kinase assay panel (% control)
# Format in all cases: binding
# [1] = biological target: T1, kinases of the scanMAX Kinase assay panel (Homo sapiens, UniProt Q14680); settings: MELK; 1 uM
# T1 construct: purchased DiscoverX Co. (contract measurement) scanMAX Kinase assay panel
# Procedure, shortened: (§1)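 Binding-panel profiling at one concentration, 1 uM in DMSO; values are % of DMSO control after subtracting the positive-control floor. Less than 35% means activity on that kinase.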
# [2] = biological target: T2, kinases of the scanMAX Kinase assay panel (Homo sapiens, UniProt P10721, V559D/V654A); settings: KIT(V559D, V654A); 1 uM
# T2 construct: purchased DiscoverX Co. (contract measurement) scanMAX Kinase assay panel
# T2 sequence (P10721 26-976 V559D/V654A): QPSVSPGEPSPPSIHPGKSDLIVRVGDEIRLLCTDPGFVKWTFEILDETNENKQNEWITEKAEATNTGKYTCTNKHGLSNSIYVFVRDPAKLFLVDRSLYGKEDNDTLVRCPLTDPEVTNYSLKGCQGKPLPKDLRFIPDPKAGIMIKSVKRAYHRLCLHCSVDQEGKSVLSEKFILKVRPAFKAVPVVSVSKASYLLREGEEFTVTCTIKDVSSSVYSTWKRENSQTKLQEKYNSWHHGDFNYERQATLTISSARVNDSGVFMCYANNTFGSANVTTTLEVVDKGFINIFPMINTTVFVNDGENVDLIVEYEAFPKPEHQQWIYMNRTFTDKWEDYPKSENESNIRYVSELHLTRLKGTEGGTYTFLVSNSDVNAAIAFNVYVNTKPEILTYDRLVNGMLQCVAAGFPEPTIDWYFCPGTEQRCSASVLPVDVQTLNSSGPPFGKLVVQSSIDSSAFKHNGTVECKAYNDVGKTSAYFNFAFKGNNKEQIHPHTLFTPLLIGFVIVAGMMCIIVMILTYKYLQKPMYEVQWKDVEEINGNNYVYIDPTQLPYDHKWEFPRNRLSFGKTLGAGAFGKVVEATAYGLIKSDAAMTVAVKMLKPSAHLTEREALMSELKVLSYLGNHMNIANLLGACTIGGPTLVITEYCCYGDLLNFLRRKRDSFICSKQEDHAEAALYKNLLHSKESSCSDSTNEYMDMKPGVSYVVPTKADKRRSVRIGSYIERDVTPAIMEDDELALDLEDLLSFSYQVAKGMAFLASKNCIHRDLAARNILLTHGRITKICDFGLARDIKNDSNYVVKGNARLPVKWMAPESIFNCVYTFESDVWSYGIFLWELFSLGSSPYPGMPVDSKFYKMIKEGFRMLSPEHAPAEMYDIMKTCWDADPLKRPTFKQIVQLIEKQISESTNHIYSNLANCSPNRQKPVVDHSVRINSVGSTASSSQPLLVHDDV
# Procedure, shortened: as §1
# [3] = biological target: T3, kinases of the scanMAX Kinase assay panel (Homo sapiens, UniProt Q9H2G2); settings: kinase SLK; 1 uM in DMSO
# T3 construct: purchased DiscoverX Co. (contract measurement) scanMAX Kinase assay panel
# Procedure, shortened: as §1
# [4] = biological target: T4, kinases of the scanMAX Kinase assay panel (Homo sapiens, UniProt P42336, I800L); settings: PIK3CA(I800L); 1 uM
# T4 construct: purchased DiscoverX Co. (contract measurement) scanMAX Kinase assay panel
# T4 sequence (P42336 whole entry I800L): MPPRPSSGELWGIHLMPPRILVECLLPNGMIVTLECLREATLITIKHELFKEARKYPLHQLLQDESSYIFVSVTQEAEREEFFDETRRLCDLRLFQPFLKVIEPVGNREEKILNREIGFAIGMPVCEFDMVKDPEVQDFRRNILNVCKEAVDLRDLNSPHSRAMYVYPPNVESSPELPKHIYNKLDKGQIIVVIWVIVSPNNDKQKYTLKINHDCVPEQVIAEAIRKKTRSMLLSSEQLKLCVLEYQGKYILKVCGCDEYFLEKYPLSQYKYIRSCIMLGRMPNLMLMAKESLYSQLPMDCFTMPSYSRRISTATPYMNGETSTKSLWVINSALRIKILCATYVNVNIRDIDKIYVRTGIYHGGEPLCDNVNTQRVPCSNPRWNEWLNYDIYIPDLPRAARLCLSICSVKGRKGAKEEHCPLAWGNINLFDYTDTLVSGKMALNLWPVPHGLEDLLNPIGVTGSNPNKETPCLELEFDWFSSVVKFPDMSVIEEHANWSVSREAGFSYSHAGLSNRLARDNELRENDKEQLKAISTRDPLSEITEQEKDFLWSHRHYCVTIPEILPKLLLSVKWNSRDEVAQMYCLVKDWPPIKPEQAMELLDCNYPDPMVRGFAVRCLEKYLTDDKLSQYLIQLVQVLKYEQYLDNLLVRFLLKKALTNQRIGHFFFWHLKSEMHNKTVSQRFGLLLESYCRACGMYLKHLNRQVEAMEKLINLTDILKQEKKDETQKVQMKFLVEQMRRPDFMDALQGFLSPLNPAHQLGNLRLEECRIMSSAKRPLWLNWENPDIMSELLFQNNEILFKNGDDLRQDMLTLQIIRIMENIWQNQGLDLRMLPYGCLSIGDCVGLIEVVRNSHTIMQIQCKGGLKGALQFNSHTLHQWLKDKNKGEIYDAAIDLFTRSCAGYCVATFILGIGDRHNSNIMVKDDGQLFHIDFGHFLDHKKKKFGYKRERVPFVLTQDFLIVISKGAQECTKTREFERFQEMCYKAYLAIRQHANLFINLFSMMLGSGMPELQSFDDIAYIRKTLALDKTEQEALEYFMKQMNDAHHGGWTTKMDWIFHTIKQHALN
# Procedure, shortened: as §1
# [5] = biological target: T5, kinases of the scanMAX Kinase assay panel (Homo sapiens, UniProt O00750); settings: PIK3C2B; 1 uM
# T5 construct: purchased DiscoverX Co. (contract measurement) scanMAX Kinase assay panel
# Procedure, shortened: as §1
# [6] = biological target: T6, kinases of the scanMAX Kinase assay panel (Homo sapiens, UniProt P36888); settings: 1 uM
# T6 construct: purchased DiscoverX Co. (contract measurement) scanMAX Kinase assay panel
# T6 sequence (P36888 27-993): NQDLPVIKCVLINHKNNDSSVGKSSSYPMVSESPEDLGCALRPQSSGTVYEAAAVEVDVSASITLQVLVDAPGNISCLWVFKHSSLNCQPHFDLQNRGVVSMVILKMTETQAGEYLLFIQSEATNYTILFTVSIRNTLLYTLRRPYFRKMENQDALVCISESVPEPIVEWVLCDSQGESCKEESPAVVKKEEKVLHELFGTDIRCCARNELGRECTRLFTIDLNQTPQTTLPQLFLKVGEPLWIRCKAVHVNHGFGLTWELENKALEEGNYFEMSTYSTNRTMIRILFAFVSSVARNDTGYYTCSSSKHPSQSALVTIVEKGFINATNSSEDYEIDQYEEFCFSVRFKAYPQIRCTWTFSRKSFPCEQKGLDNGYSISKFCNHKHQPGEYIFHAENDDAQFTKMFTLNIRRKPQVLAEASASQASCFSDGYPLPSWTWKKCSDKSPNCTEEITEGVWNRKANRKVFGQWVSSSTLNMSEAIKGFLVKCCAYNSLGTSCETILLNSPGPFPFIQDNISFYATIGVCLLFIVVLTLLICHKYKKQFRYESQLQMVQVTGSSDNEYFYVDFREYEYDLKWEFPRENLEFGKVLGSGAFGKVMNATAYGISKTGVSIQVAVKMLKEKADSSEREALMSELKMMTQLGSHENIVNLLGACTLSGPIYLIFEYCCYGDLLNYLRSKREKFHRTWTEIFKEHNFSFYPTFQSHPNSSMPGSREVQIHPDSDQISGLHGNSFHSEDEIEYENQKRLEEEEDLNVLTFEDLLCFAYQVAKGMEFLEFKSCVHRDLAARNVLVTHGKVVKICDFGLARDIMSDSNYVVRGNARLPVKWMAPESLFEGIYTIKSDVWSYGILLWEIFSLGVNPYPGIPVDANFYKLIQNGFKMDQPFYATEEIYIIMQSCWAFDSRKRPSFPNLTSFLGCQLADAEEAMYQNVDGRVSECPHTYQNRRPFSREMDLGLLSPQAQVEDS
# Procedure, shortened: as §1
# [7] = biological target: T7, kinases of the scanMAX Kinase assay panel (Homo sapiens, UniProt Q96Q40); settings: PFTAIRE2; 1 uM
# T7 construct: purchased DiscoverX Co. (contract measurement) scanMAX Kinase assay panel
# T7 sequence (Q96Q40 whole entry): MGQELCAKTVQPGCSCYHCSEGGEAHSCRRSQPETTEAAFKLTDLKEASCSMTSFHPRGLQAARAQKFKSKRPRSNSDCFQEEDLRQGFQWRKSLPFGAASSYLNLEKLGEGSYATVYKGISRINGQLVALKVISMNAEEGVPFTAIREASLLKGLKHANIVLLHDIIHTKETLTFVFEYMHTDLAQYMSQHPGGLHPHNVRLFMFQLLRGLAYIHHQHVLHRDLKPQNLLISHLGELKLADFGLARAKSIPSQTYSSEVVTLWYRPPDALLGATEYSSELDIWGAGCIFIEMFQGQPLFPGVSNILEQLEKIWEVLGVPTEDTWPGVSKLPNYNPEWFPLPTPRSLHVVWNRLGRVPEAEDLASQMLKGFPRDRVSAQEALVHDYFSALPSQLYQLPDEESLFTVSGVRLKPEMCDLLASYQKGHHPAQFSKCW
# Procedure, shortened: as §1
# [8] = biological target: T8, kinases of the scanMAX Kinase assay panel (Homo sapiens, UniProt P54756); settings: EPHA5; 1 uM
# T8 construct: purchased DiscoverX Co. (contract measurement) scanMAX Kinase assay panel
# Procedure, shortened: as §1
# [9] = biological target: T9, kinases of the scanMAX Kinase assay panel (Homo sapiens, UniProt Q9Y2H9); settings: MAST1; 1 uM
# T9 construct: purchased DiscoverX Co. (contract measurement) scanMAX Kinase assay panel
# Procedure, shortened: as §1
# [10] = biological target: T10, kinases of the scanMAX Kinase assay panel (Homo sapiens, UniProt Q14289); settings: PYK2; 1 uM
# T10 construct: purchased DiscoverX Co. (contract measurement) scanMAX Kinase assay panel
# T10 sequence (Q14289 whole entry): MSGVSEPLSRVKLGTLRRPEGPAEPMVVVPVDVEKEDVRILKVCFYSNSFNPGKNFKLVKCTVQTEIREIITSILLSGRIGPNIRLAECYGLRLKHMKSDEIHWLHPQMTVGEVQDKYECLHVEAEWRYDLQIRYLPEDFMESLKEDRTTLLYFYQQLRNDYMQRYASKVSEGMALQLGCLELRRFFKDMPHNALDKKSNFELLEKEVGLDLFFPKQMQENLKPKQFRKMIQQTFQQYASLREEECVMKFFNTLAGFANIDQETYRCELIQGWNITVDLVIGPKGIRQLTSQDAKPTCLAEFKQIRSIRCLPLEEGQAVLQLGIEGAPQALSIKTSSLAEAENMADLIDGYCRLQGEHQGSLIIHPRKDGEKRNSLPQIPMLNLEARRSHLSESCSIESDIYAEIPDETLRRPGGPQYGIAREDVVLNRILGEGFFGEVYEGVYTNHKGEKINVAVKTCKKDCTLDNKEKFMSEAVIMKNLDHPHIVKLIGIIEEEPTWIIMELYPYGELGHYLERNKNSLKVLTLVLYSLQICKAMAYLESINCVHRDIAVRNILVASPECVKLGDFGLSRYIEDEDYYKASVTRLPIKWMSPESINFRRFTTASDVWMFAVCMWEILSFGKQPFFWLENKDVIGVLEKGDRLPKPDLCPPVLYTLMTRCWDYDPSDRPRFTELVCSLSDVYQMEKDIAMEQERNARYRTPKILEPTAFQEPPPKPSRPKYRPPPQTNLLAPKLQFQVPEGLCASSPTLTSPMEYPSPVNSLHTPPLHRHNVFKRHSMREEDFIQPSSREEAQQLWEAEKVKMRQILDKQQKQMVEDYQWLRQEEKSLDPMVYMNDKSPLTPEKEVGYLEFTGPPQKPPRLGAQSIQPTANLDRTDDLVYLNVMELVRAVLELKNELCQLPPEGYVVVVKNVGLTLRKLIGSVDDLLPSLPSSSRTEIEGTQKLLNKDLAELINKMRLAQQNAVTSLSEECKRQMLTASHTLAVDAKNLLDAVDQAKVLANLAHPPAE
# Procedure, shortened: as §1
# [11] = biological target: T11, kinases of the scanMAX Kinase assay panel (Homo sapiens, UniProt P53778); settings: p38-gamma; 1 uM
# T11 construct: purchased DiscoverX Co. (contract measurement) scanMAX Kinase assay panel
# T11 sequence (P53778 1-367): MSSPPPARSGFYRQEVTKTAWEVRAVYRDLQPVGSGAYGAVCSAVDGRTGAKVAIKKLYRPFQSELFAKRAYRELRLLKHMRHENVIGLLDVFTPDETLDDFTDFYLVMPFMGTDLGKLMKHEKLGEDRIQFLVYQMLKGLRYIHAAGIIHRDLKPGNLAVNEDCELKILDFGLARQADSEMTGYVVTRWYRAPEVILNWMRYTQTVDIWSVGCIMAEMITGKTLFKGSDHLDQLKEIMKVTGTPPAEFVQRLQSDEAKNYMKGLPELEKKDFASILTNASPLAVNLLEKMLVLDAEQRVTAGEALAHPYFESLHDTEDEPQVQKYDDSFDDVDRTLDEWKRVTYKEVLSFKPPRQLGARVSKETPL
# Procedure, shortened: as §1
# T1 sequence (Q14680 whole entry): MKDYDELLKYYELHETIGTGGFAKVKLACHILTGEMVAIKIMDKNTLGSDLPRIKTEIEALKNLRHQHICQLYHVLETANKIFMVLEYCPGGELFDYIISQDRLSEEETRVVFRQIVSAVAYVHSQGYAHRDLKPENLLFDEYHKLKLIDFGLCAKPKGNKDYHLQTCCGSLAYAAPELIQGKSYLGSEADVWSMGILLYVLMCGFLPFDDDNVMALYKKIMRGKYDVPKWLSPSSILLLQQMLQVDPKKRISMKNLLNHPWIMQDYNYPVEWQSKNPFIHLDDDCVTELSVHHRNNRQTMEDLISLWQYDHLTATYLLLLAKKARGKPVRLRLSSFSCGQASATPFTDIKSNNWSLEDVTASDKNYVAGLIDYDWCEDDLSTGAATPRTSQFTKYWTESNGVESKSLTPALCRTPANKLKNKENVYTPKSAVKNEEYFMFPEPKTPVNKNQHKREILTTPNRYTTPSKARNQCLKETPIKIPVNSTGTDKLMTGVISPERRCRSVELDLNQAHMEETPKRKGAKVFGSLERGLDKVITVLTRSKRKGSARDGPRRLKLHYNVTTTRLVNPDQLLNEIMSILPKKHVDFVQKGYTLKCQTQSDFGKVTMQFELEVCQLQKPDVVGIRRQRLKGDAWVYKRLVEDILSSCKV
SMILES,remaining binding at 1 µM [1] [%],remaining binding at 1 µM [2] [%],remaining binding at 1 µM [3] [%],remaining binding at 1 µM [4] [%],remaining binding at 1 µM [5] [%],remaining binding at 1 µM ([6]; FLT3-autoinhibited) [%],remaining binding at 1 µM ([6]; FLT3) [%],remaining binding at 1 µM [7] [%],remaining binding at 1 µM [8] [%],remaining binding at 1 µM [9] [%],remaining binding at 1 µM [10] [%],remaining binding at 1 µM [11] [%]
"CNc1nc(Nc2ccc(C(=O)N3CCOCC3)cc2OC)nc2[nH]cc(C#N)c12 [Example 1, 2-((2-methoxy-4-(morpholine-4-carbonyl)phenyl)amino)-4-(methylamino)-7H-pyrrolo[2,3-d]pyrimidine-5-carbonitrile]",78,76,100,100,89,45,86,97,87,100,25,70
"CC1(Nc2nc(Nc3cnn([C@H]4CCN(C5COC5)C[C@@H]4F)c3Cl)nc3[nH]cc(C#N)c23)CC1 [Example 52, 2-((5-chloro-1-((3S,4S)-3-fluoro-1-(oxetane-3-yl)piperidine-4-yl)-1H-pyrazole-4-yl)amino)((1-methylcyclopropyl)amino)-7H-pyrrolo[2,3-d]pyrimidine-5-carbonitrile]",6.3,0.9,13,0.1,91,0.3,0.05,90,79,74,1.2,77
"CCNc1nc(Nc2ccc(C(=O)N3CCC(N4CCOCC4)CC3)cc2OC)nc2[nH]cc(C(F)(F)F)c12 [Example 104, (4-((4-(ethylamino)-5-(trifluoromethyl)-7H-pyrrolo[2,3-d]pyrimidine-2-yl)amino)-3-methoxyphenyl)(4-morpholinopiperidine-1-yl)methanone]",79,94,97,72,75,76,65,99,100,72,2.8,89
